PubChem BioAssay (NCI)
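Exposure lasted 48 hours, with cells grown in 96-well plates and compounds tested at five concentrations. GI50 marks 50% less growth. TGI: total growth inhibition.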

Assays:
Experiment in all cases: NCI-60 cell line screen, 48 h
HOP-92 NSCLC = tested on: HOP-92 NSCLC
IGROV1 ovarian = tested on: IGROV1 ovarian
HL-60(TB) leukemia = tested on: HL-60(TB) leukemia
UACC-257 melanoma = tested on: UACC-257 melanoma
HCT-116 colon = tested on: HCT-116 colon
SK-MEL-2 melanoma = tested on: SK-MEL-2 melanoma
HOP-62 NSCLC = tested on: HOP-62 NSCLC
K-562 leukemia = tested on: K-562 leukemia
LOX IMVI melanoma = tested on: LOX IMVI melanoma
MOLT-4 leukemia = tested on: MOLT-4 leukemia
U251 CNS = tested on: U251 CNS
CAKI-1 renal = tested on: CAKI-1 renal
SF-539 CNS = tested on: SF-539 CNS
OVCAR-5 ovarian = tested on: OVCAR-5 ovarian
OVCAR-8 ovarian = tested on: OVCAR-8 ovarian
NCI/ADR-RES ovarian = tested on: NCI/ADR-RES ovarian
A549 NSCLC = tested on: A549 NSCLC
NCI-H23 lung = tested on: NCI-H23 lung
MALME-3M melanoma = tested on: MALME-3M melanoma
NCI-H226 lung = tested on: NCI-H226 lung
SW-620 colon = tested on: SW-620 colon
NCI-H522 lung = tested on: NCI-H522 lung
MDA-MB-231 breast = tested on: MDA-MB-231 breast
ACHN renal = tested on: ACHN renal
SF-295 CNS = tested on: SF-295 CNS
SNB-75 CNS = tested on: SNB-75 CNS
CCRF-CEM leukemia = tested on: CCRF-CEM leukemia
COLO 205 colon = tested on: COLO 205 colon
786-0 renal = tested on: 786-0 renal
HT29 colon = tested on: HT29 colon
TK-10 renal = tested on: TK-10 renal
RXF 393 renal = tested on: RXF 393 renal
OVCAR-4 ovarian = tested on: OVCAR-4 ovarian
MCF7 breast = tested on: MCF7 breast
PC-3 prostate = tested on: PC-3 prostate
NCI-H460 lung = tested on: NCI-H460 lung
MDA-MB-435 = tested on: MDA-MB-435
RPMI-8226 leukemia = tested on: RPMI-8226 leukemia
UACC-62 melanoma = tested on: UACC-62 melanoma
A498 renal = tested on: A498 renal
SK-MEL-5 melanoma = tested on: SK-MEL-5 melanoma
SN12C renal = tested on: SN12C renal
SNB-19 CNS = tested on: SNB-19 CNS
UO-31 renal = tested on: UO-31 renal
BT-549 breast = tested on: BT-549 breast
SR leukemia = tested on: SR leukemia
SK-OV-3 ovarian = tested on: SK-OV-3 ovarian
HCC-2998 colon = tested on: HCC-2998 colon
DU-145 prostate = tested on: DU-145 prostate
M14 melanoma = tested on: M14 melanoma
SK-MEL-28 melanoma = tested on: SK-MEL-28 melanoma
SF-268 CNS = tested on: SF-268 CNS
HCT-15 colon = tested on: HCT-15 colon
T-47D breast = tested on: T-47D breast
HS 578T breast = tested on: HS 578T breast
KM12 colon = tested on: KM12 colon
EKVX NSCLC = tested on: EKVX NSCLC

CCCCCc1ccc(S(=O)(=O)Nc2cc(-c3csc(NC(=O)CN4CCN(C)CC4)n3)ccc2N2CCN(C)CC2)cc1
GI50 (HOP-92 NSCLC): 909 nM | TGI (HOP-92 NSCLC): 3410 nM | GI50 (IGROV1 ovarian): 1120 nM | TGI (IGROV1 ovarian): 2610 nM | GI50 (HL-60(TB) leukemia): 1000 nM | TGI (HL-60(TB) leukemia): 2350 nM | GI50 (UACC-257 melanoma): 909 nM | TGI (UACC-257 melanoma): 1710 nM | GI50 (HCT-116 colon): 735 nM | TGI (HCT-116 colon): 1490 nM | GI50 (SK-MEL-2 melanoma): 853 nM | TGI (SK-MEL-2 melanoma): 1610 nM | GI50 (HOP-62 NSCLC): 954 nM | TGI (HOP-62 NSCLC): 1990 nM | GI50 (K-562 leukemia): 166 nM | TGI (K-562 leukemia): 5530 nM | GI50 (LOX IMVI melanoma): 842 nM | TGI (LOX IMVI melanoma): 1610 nM | GI50 (MOLT-4 leukemia): 1120 nM | TGI (MOLT-4 leukemia): 3740 nM | GI50 (U251 CNS): 834 nM | TGI (U251 CNS): 1650 nM | GI50 (CAKI-1 renal): 895 nM | TGI (CAKI-1 renal): 1970 nM | GI50 (SF-539 CNS): 860 nM | TGI (SF-539 CNS): 1620 nM | GI50 (OVCAR-5 ovarian): 1250 nM | TGI (OVCAR-5 ovarian): 3310 nM | GI50 (OVCAR-8 ovarian): 966 nM | TGI (OVCAR-8 ovarian): 1950 nM | GI50 (NCI/ADR-RES ovarian): 1380 nM | TGI (NCI/ADR-RES ovarian): 3960 nM | GI50 (A549 NSCLC): 1250 nM | TGI (A549 NSCLC): 3720 nM | GI50 (NCI-H23 lung): 1400 nM | TGI (NCI-H23 lung): 4370 nM | GI50 (MALME-3M melanoma): 879 nM | TGI (MALME-3M melanoma): 1670 nM | GI50 (NCI-H226 lung): 3000 nM | TGI (NCI-H226 lung): 9350 nM | GI50 (SW-620 colon): 853 nM | TGI (SW-620 colon): 1640 nM | GI50 (NCI-H522 lung): 909 nM | TGI (NCI-H522 lung): 1720 nM | GI50 (MDA-MB-231 breast): 913 nM | TGI (MDA-MB-231 breast): 1830 nM | GI50 (ACHN renal): 1140 nM | TGI (ACHN renal): 2640 nM | GI50 (SF-295 CNS): 956 nM | TGI (SF-295 CNS): 1930 nM | GI50 (SNB-75 CNS): 2110 nM | TGI (SNB-75 CNS): 4480 nM | GI50 (CCRF-CEM leukemia): 792 nM | TGI (CCRF-CEM leukemia): 3380 nM | GI50 (COLO 205 colon): 924 nM | TGI (COLO 205 colon): 1860 nM | GI50 (786-0 renal): 826 nM | TGI (786-0 renal): 1570 nM | GI50 (HT29 colon): 872 nM | TGI (HT29 colon): 1810 nM | GI50 (TK-10 renal): 2920 nM | TGI (TK-10 renal): 7140 nM | GI50 (RXF 393 renal): 792 nM | TGI (RXF 393 renal): 1590 nM | GI50 (OVCAR-4 ovarian): 1010 nM | TGI (OVCAR-4 ovarian): 2340 nM | GI50 (MCF7 breast): 893 nM | TGI (MCF7 breast): 1840 nM | GI50 (PC-3 prostate): 1200 nM | TGI (PC-3 prostate): 3490 nM | GI50 (NCI-H460 lung): 966 nM | TGI (NCI-H460 lung): 1860 nM | GI50 (MDA-MB-435): 910 nM | TGI (MDA-MB-435): 1760 nM | GI50 (RPMI-8226 leukemia): 1030 nM | TGI (RPMI-8226 leukemia): 2660 nM | GI50 (UACC-62 melanoma): 912 nM | TGI (UACC-62 melanoma): 1740 nM | GI50 (A498 renal): 2900 nM | TGI (A498 renal): 9030 nM | GI50 (SK-MEL-5 melanoma): 900 nM | TGI (SK-MEL-5 melanoma): 1640 nM | GI50 (SN12C renal): 1060 nM | TGI (SN12C renal): 2370 nM | GI50 (SNB-19 CNS): 1380 nM | TGI (SNB-19 CNS): 4110 nM | GI50 (UO-31 renal): 818 nM | TGI (UO-31 renal): 1670 nM | GI50 (BT-549 breast): 4070 nM | TGI (BT-549 breast): 11100 nM | GI50 (SR leukemia): 173 nM | TGI (SR leukemia): 930 nM | GI50 (SK-OV-3 ovarian): 1110 nM | TGI (SK-OV-3 ovarian): 2670 nM | GI50 (HCC-2998 colon): 877 nM | TGI (HCC-2998 colon): 1780 nM | GI50 (DU-145 prostate): 1520 nM | TGI (DU-145 prostate): 4640 nM | GI50 (M14 melanoma): 895 nM | TGI (M14 melanoma): 1710 nM | GI50 (SK-MEL-28 melanoma): 926 nM | TGI (SK-MEL-28 melanoma): 1690 nM | GI50 (SF-268 CNS): 941 nM | TGI (SF-268 CNS): 2010 nM | GI50 (HCT-15 colon): 733 nM | TGI (HCT-15 colon): 1620 nM | GI50 (T-47D breast): 829 nM | TGI (T-47D breast): 1620 nM | GI50 (HS 578T breast): 1050 nM | TGI (HS 578T breast): 2420 nM | GI50 (KM12 colon): 1160 nM | TGI (KM12 colon): 2670 nM | GI50 (EKVX NSCLC): 1970 nM | TGI (EKVX NSCLC): 7470 nM
